According to patent publication US9932300B2, “N,N′-diarylurea compounds and N,N′-diarylthiourea compounds as inhibitors of translation initiation” (President and Fellows of Harvard College, priority 2009, dated 2018):
“Also recorded” adds a separate entry of the source. Peptide text beside a SMILES is read from it.

Legend:
[1] = system: eIF2-GTP-Met-tRNAi ternary complex; test: Ternary complex activity (cell line not stated); format: cell-based
[2] = Solubility in solvents during purification; format: physicochemical; details: crude product
Protocol: Because it could not be purified, this compound was removed from the structure-activity relationship (SAR) study.
As another non-limiting example, 3,4-dichlorophenylisocyanate (250 mg, 1.330 mmol) and 2-amino-4-hydroxy-6-methylpyrimidine (166 mg, 1.330 mmol) were used following the general procedure E to synthesize 28.

[3] = system: eIF2-GTP-Met-tRNAi ternary complex; test: Ternary complex / ATF-4 dual luciferase assay in human cancer cell lines co-transfected with tTA and pBISA-DL(ATF-4) (CRL-2351, PC-3, CRL-2813); format: cell-based; details: CRL-2351 cell line
Protocol: FIGS. 8A-8D depict that N,N′-diarylureas reduce the availability of the eIF2-GTP-Met-tRNAi ternary complex in human cancer cells. A-C) PC-3, CR-L2351, and CRL-2813 human cancer cell lines were co-transfected with pBISA-DL^(ATF-4) and ptTA plasmids. One day post-transfection, the cells were treated with the indicated concentrations of N,N′-diarylureas. Firefly/renilla ratio was determined by DLR assay 8 hours after treatment. D) PC-3, CR-L2351, and CRL-2813 human cancer cell lines were treated with the indicated concentrations of N,N′-diarylureas four 8 hours, and expression of endogenous CHOP mRNA was determined by real-time PCR.
(§1) For example, reducing amount of the ternary complex increases translation of ATF-4, which results in elevated expression of CHOP mRNA and protein. Therefore, expression of endogenous CHOP mRNA and CHOP protein in KLN-tTA/pBISA-DL^(ATF-4) cells were utilized as secondary assays to validate N,N′-diarylurea compounds as modifiers of the eIF2⋅GTP⋅Met-tRNAi ternary complex. […] To rule out the possibility that the activity of N,N′-diarylurea compounds was confined to a single cell type, the effects of these compounds on the ternary complex assay and the expression of CHOP mRNA was assayed in CRL-2351, PC-3, CRL-2813 human breast, prostate, and melanoma cancer cell lines respectively. For the reporter gene assay, the three human cell lines were co-transfected with tTA expression vector and the pBISA-DL^(ATF-4) dual luciferase expression vector shown in FIG. 6. […] The expression of CHOP mRNA was assayed by real time PCR in the same cell lines treated with 5 or 20 μM of each compound. […]
Stable and transient transfection: Cells were seeded at the density of 10^5 in 60-mm (stable transfection) or 10^4 cells per well of 96-well plate (transient transfection) plates and transfected one day later using the Qiagen Transfectamine transfection kit. For selection of stable cell lines, transfected cells were transferred to 100-mm plates and selected with appropriate antibiotics.
Dual luciferase assay: Cells or minced tumors expressing firefly and renilla luciferases were lysed and the extracts assayed with a glow type dual luciferase assay kit, per manufacturer's instruction (Promega Inc., Madison, Wis.).

[4] = system: eIF2-GTP-Met-tRNAi ternary complex; test: Ternary complex assay (dual luciferase, firefly/renilla ratio) in stable KLN-tTA/pBISA-DL(ATF-4) cells; HTS and hit confirmation; format: cell-based, mouse
[5] = system: PC-3 human prostate cancer cells; test: Cell proliferation, SRB assay, PC-3; format: cell-based; details: read-out: IC50 (concentration that inhibits cell proliferation by 50%)
Protocol: Reduced availability of the ternary complex causes inhibition of translation initiation and thereby of cell proliferation. […] The effects of N,N′-diarlyureas on the proliferation KLN mouse squamous cell carcinoma, CRL-2351 human breast, CRL-2813 human melanoma, A549 human lung and PC-3 human prostate cancer cell lines were tested.
To determine if N,N′-diarylureas inhibit cell proliferation by reducing the availability of the ternary complex, the effect of N,N′-diarylureas on proliferation of previously described transgenic PC-3 human prostate cancer cell lines expressing either the non-phosphorylatable eIF2α-S51A mutant or the eIF2α-WT was studied. […] Reducing the expression of HRI, the eIF2α kinase that mediates N,N′-diarlyurea induced phosphorylation of eIF2α similarly abrogates the effect of these agents on cell proliferation (FIGS. 15C and 15D).
Cell Growth Assay: Cell growth was measured by the SRB assay.

CHOP = test: Expression of endogenous CHOP mRNA (real time PCR) and CHOP protein (Western blot); format: cell-based, mouse and human; details: siRNA against HRI
Excerpt: as §1
Real time PCR: For real time PCR, total RNA was extracted with TaqMan Gene Expression Cells-to-Ct™ Kit (Applied Biosystems, Branchburg, N.J.) according to manufacturer's protocol. […] To calibrate the results, all the transcripts quantities were normalized to 18S rRNA (was 18S ribosomal RNA-like mRNA in mouse). […]

HRI = test: Activation of HRI in cell-free lysates (phosphorylation of eIF2α, Western blot); format: biochemical, rabbit and human; details: lysates of CRL-2813 cells or heme-supplemented rabbit reticulocytes, 30 minutes at 37° C.
Protocol: FIGS. 14A and 14B depict that N,N′-diarylurea compounds activate HRI in cell free lysates. A and B) Heme supplemented rabbit reticulocyte (a) or in-house prepared human melanoma cancer cell lysates (b) were incubated with the indicated concentration of compound 1781 for 30 minutes at 37° C. and phosphorylation of eIF2α was determined by Western blot analysis.
Compound #1781 was added to lysates of CRL-2813 cells or heme-supplemented rabbit reticulocytes and phosphorylation of eIF2α by Western blot was determined.

[6] = In vivo toxicity in female nude mice (body weight, food consumption, necropsy)
Protocol: Five female nude mice each were treated with 200 mg/kg, 100 mg/kg #1781 in 15 μl DMSO or 15 μl DMSO daily for seven days. Mice were observed daily for signs of toxicity and weighed every other day for total of 15 days and then necropsy was performed. The average body of each group is plotted against the time.
To study toxicity effects, mice were treated with various doses of compound #1781 or vehicle.

[7] = system: eIF2-GTP-Met-tRNAi ternary complex; test: Ternary complex assay (dual luciferase, firefly/renilla ratio) in stable KLN-tTA/pBISA-DL(ATF-4) cells; HTS and hit confirmation; format: cell-based, mouse; details: for Induction of F-luc/R-luc ratio after knockdown of HRI: siRNA against HRI; for Relative F-luc/R-luc Ratio (+/− SEM): anti-cancer agents at 20 μM, ternary complex assay

Structure (SMILES): CN(C(=O)Nc1cc(C(F)(F)F)cc(C(F)(F)F)c1)c1cc(C(F)(F)F)cc(C(F)(F)F)c1
- Maximum effect (Emax, fold over control) [1]: 13 fold over control
- Maximum effective dose Cmax [1]: 10 µM

Structure (SMILES): COc1cc(N(C)C(=O)Nc2cc(C(F)(F)F)cc(C(F)(F)F)c2)ccc1C
- Maximum effect (Emax, fold over control) [1]: Inactive

Structure (SMILES): Cc1ccc(N(C)C(=O)Nc2cc(C(F)(F)F)cc(C(F)(F)F)c2)cc1O
- Maximum effect (Emax, fold over control) [1]: 8.5 fold over control
- Maximum effective dose Cmax [1]: 80 µM

Structure (SMILES): O=C(Nc1cc(C(F)(F)F)cc(C(F)(F)F)c1)Nc1ncccc1O [Compound 28]
- Solubility in solvents [2]: not soluble in any solvent; also recorded: wasn't soluble in any solvent tested
- ATF-4 Cmax (concentration corresponding to the maximal activity) [3]: 40 µM

Structure (SMILES): O=C(Nc1ccc(Cl)c(Cl)c1)Nc1cc([N+](=O)[O-])ccc1Cl [Compound 1527]
- Active or inactive N,N′-diarylurea (ternary complex assay) ([4]; designation in figure legend): inactive
- IC50 [5]: 8.3 µM

Structure (SMILES): O=C(Nc1ccc(Cl)c(Cl)c1)Nc1ccc2nnsc2c1 [Compound 1781]
- Induction of CHOP mRNA after knockdown of HRI (CHOP): abrogated induction of CHOP mRNA
- Phosphorylation of eIF2α in cell lysates (HRI): caused phosphorylation of eIF2α in cell lysates in a dose dependent manner
- Apparent in vivo toxicity ([6]; 200 mg/kg or 100 mg/kg daily for seven days, female nude mice, observed 15 days): no apparent in vivo toxicity
- Effect on weight gain or food consumption ([6]; seven consecutive day administration, up to 200 mg/kg, mice): no adverse effect on weight gain or food consumption
- Induction of F-luc/R-luc ratio after knockdown of HRI [7]: significantly abrogated
- Induction of F-luc/R-luc ratio after knockdown of HRI ([7]; listed as 1181): almost completely abrogated
- Induction of F-luc/R-luc ratio after knockdown of PKR, PERK or GCN2 ([7]; siRNA against PKR, PERK, GCN2, individually or combined): no effect

Structure (SMILES): CC(=O)O.NCC(=O)N[C@@H](Cc1c[nH]cn1)C(=O)O [Glycyl-1-histidyl acetate] (H-Gly-His-OH)
- Relative F-luc/R-luc Ratio (+/− SEM) [7]: 1 + 0.1

Structure (SMILES): CO[C@@]12[C@H](COC(N)=O)C3=C(C(=O)C(C)=C(N)C3=O)N1C[C@@H]1N[C@@H]12 [Mitomycin C]
- Relative F-luc/R-luc Ratio (+/− SEM) [7]: 0.9 + 0.3

Structure (SMILES): C=C1[C@@H](O)[C@@H]2O[C@]3(CC[C@H](/C=C/[C@@H](C)[C@@H]4CC(C)=C[C@@]5(O[C@H](C[C@@](C)(O)C(=O)O)CC[C@H]5O)O4)O3)CC[C@H]2O[C@@H]1[C@@H](O)C[C@H](C)[C@H]1O[C@@]2(CCCCO2)CC[C@H]1C [Okadaic acid]
- Relative F-luc/R-luc Ratio (+/− SEM) [7]: 1 + 0.3

Structure (SMILES): CCCCCCCCCC(=O)NC(CN1CCOCC1)C(O)c1ccccc1 (stereo not drawn) [Threo-1-phenyl]
- Relative F-luc/R-luc Ratio (+/− SEM) [7]: 1.5 + 0.4

Structure (SMILES): COc1cc([C@@H]2c3cc4c(cc3[C@@H](O[C@@H]3O[C@@H]5CO[C@@H](C)O[C@H]5[C@H](O)[C@H]3O)[C@H]3COC(=O)[C@H]23)OCO4)cc(OC)c1O [etoposite, reference compound]
- Relative F-luc/R-luc Ratio (+/− SEM) [7]: 1 + 0.2
- Effect on firefly/renilla luciferase ratio ([4]; KLN-tTA/pBISA-DL(ATF-4) colonies, assay validation): no effect
